Experiments:
IFNGR1 expression = test: qRT-PCR of IFNGR1 and IFNAR1 in RWPE1-MYC cells; type: cell-based, human
Protocol: (§1) Target-specific siRNA and non-targeting control siRNA were purchased from 1st Base Singapore and Integrated DNA technologies (IDT) with the following target sequences respectively: EZH2 siRNA: 5′-GACUCUGAAUGCAGUUGCU-3′ (SEQ ID NO: 1); MYC siRNA: 5′-[…]-3′ (SEQ ID NO:2). All siRNA were designed by 1st Base Singapore and IDT respectively. For transfection, 30 nM siRNAs were used to transfect cells. 48 h after transfection cell pellets were collected and subjected indicated assays.
(§2) Total RNA was isolated by using Trizol (Invitrogen) and purified with the RNeasy Mini Kit (Qiagen). The microarray hybridization was performed using the Illumina Gene Expression Sentrix BeadChip HumanRef-8_V3, and data analysis was performed by GeneSpring software from Agilent Technologies as described previously. The analyzed gene sets by GeneSpring were next subjected to Ingenuity Pathway Analysis (IPA) for gene ontology (GO) analysis. Reverse transcription and quantitative PCR assays were performed using High Capacity cDNA Archive kit and KAPA SyBr Fast qPCR kit (KAPA biosystems). For quantification of mRNA levels, 18S level was used as an internal control. All reactions were analyzed in an Applied Biosystems PRISM 7500 Fast Real-Time PCR system in 96-well plate format.

[1] = system: PC3-derived prostatospheres; test: Prostatosphere formation assay, PC3; type: cell-based, human; conditions: EZH2 knockdown in combination with IFN-γ, 7 days
[2] = system: IFN responsive genes (MX1, IRF1, IFI16); test: qRT-PCR of IFN responsive genes in PC3 cells; type: cell-based, human; conditions: in response to IFN-γ stimulation
Protocol: as §1, §2

[3] = system: EZH2 and IFNGR1 expression; test: Immunohistochemistry of EZH2 and IFNGR1 in DU145 xenograft tumors; type: in vivo; conditions: tumors resected from treated mice
Protocol: Tissue microarray slides (PR956, BR1503b, LC2083, and LV6161) were purchased from US Biomax. Staining and image analysis of tissue microarray were performed by Histopathology Department from Institute of Molecular and Cell Biology, Agency for Science, Technology, and Research (A*STAR), Singapore. Anti-EZH2 (D2C9 XP) antibody was purchased from Cell Signaling, anti-MYC (9E10) and anti-IFNGR1 antibody (GIR-94) was purchased from Santa Cruz Biotechnology. Briefly, five-micron paraffin-embedded tissue sections cut, deparaffinized, rehydrated, antigens were retrieved by Proteinase K solution; sections were then incubated in 3% H2O2 at room temperature to block endogenous peroxidase. Slides were incubated in primary antibody against EZH2 or IFNGR1 for 45 mins followed by 30 min incubation with anti-mouse Labelled Polymer (Dako, Calif.). Specificity of the immunostaining was determined by the inclusion of isotype-specific IgG as negative control. […]
For in vivo evaluation of DZNep and IFN-γ treatment, the experiments were conducted in compliance with animal protocol approved by the ASTAR-Biopolis Institutional Animal Care and Use Committee (IACUC) of Singapore. […] Tumors were measured by vernier calliper at least twice per week and tumors volume was calculated with formula: V=W*W*L/2. […] Differences among groups and treatments were determined by ANOVA followed by t tests. […]

[4] = system: IFN responsive genes (IFI16, IRF1, OAS1); test: Quantitative PCR of IFN responsive genes in DU145 prostatospheres; type: cell-based, human; conditions: DZNep with IFN-γ
Protocol: as §2, with “format. Prostatospheres were generated according to protocols known to the skilled person in the art. […] 7 days old prostatospheres formed were stained with 4 μg/ml p-Iodonitrotetrazolium Violet (INT) overnight and were counted and analyzed using a GelCount™ automatic plate scanner (Oxford Optronics) and GelCount Version 0.025.1 software (Oxford Optronics). […]” for “format.”

RWPE1-MYC cells = test: FACS cell death analysis in RWPE1-MYC cells; type: cell-based, human; conditions: DZNep (2.5 μM) for 3 days with increasing doses of IFN-γ
Protocol: (§3) For the assessment of cell death, cells were harvested in 70% ethanol. Fixed cells were stained with Propidium Iodide (P.I) (50 μg/mL). The stained cells were analyzed for DNA content by FACS in a FACSCalibur (Becton Dickinson Instrument). % of cell death was defined as the sub-G1 population quantified using the CellQuest software (Becton Dickinson). The percentage of dead cells or sub-G1 cells was calculated by comparing the results of each experiment to the results from DMSO-treated cells. Each assay was repeated a minimum of three times, with results reported as means+s.e.m.

RWPE1-PI3K cells = test: FACS cell death analysis in RWPE1-PI3K cells; type: cell-based, human; conditions: DZNep (2.5 μM) for 3 days with increasing doses of IFN-γ
Protocol: as §3

Compound	IFNGR1 expression after knockdown (IFNGR1 expression)	tumorsphere formation after knockdown [1]	activation of IFN genes after knockdown [2]	EZH2 expression in tumors (IHC) [3]	IFNGR1 expression in tumors (IHC) [3]	expression of IFN genes in prostatospheres [4]	induction of apoptosis / cell death (RWPE1-MYC cells)	induction of apoptosis / cell death (RWPE1-PI3K cells)
EZH2 knockdown: EZH2 siRNA: 5′-GACUCUGAAUGCAGUUGCU-3′ (SEQ ID NO: 1) (other strand not given here)	restore the expression of IFNGR1	efficiently inhibited the tumorsphere formation	robust activation of IFN genes	–	–	–	–	–
Cl.Nc1nccc2c1ncn2[C@@H]1C=C(CO)[C@@H](O)[C@H]1O [DZNep, (−)-1-[(1R,4R,5S)-3-(Hydroxymethyl)-4,5-dihydroxy-2-cyclopenten-1-yl]4-aminoimidazo[4,5-c]pyridine hydrochloride]	–	–	–	downregulation of EZH2	upregulation of IFNGR1	enhanced response to IFN-γ stimulation	synergistic effect	but not RWPE1-PI3K cells

From patent US9889180B2, “Method of treating cancer” (Agency for Science, Technology and Research, priority 2012, dated 2018)
